For 28 molecules, IC50 results are on record in patent US20240150362A1, “Substituted Pyrrolotriazines” (Molecure S.A., priority 2022, published 2024).

Structures can show the parent of a compound that is named as a salt.

The target in the assay is T1, full-length USP7 (Homo sapiens, UniProt Q93009).
T1 construct: A 45 μl reaction volume containing full-length USP7 (0.5-1.0 nM)
T1 sequence (Q93009 whole entry): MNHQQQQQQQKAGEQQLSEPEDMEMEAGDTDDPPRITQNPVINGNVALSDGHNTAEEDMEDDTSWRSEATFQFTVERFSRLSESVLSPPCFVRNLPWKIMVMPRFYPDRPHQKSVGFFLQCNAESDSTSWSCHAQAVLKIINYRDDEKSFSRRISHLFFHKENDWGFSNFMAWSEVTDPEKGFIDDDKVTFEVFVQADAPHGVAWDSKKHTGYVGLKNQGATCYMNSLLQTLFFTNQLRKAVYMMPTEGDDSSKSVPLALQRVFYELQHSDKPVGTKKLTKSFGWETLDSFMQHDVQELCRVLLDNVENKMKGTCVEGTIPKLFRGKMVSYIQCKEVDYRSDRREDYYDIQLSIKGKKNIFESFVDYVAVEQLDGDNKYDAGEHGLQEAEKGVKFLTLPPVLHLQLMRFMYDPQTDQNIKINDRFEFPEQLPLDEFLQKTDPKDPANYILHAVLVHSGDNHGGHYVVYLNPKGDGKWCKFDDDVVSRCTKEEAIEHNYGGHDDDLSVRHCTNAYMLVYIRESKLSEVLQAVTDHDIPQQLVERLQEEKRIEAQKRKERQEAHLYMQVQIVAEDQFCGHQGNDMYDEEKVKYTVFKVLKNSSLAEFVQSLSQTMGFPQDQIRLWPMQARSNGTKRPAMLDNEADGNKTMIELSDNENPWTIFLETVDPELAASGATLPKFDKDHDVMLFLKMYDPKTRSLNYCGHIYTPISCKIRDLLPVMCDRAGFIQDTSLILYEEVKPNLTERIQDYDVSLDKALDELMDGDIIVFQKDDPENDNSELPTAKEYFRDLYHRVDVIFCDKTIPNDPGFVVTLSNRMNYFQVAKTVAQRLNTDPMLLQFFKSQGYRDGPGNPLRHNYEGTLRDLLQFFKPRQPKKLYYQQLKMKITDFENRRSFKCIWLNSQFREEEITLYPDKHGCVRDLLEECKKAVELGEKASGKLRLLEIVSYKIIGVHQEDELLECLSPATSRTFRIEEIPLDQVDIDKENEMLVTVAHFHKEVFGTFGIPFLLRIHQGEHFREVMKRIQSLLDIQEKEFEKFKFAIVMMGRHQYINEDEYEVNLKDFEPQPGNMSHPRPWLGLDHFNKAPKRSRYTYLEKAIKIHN
The assay is described as follows: Enzymatic assay to determine IC50 of USP7 inhibitors (Ubiquitin-Rhodamine 110 cleavage). The class given is biochemical. To be noted: full-length USP7 0.5-1.0 nM, 0.5 μM Ubiquitin-Rhodamine 110, 30-60 min at 25° C. As to the method:
Enzymatic Assay to Determine IC50 of USP7 Inhibitors
The IC50 is the concentration of an inhibitor where the measured enzyme activity is reduced by half. In the case of USP7 deubiquitinase, the IC50 of an USP7 inhibitor is the molar concentration of the compound that inhibits 50% of the activity observed in a USP7-mediated-ubiquitin-rhodamine cleavage assay. For the inhibitors disclosed herein, their potency was measured using the following method.
A 45 μl reaction volume containing full-length USP7 (0.5-1.0 nM) in 50 mM HEPES pH 7.5, 150 mM NaCl, 2 mM DTT, 1 mg/ml BSA and 0.05% Tween20 was assembled in wells of 96 well half area black flat bottom plates. Test compounds were first dissolved to 30 mM stocks in DMSO and subsequently introduced to enzyme 15 min after USP7 incubation with DTT at room temperature. The enzymatic reaction was started by adding 0.5 μM Ubiquitin-Rhodamine 110 (final concentration) and allowed to proceed for 30-60 min at 25° C., 250 RPM shaking before Rhodamine fluorescence (485 nm excitation/535 nm emission) was measured using Tecan Spark M10 plate reader. The IC50 values were determined by data fitting to variable slope model four-parameter dose-response curve using GraphPad 7.05.
As for `CC1(C)C2C(=O)N(Cc3cc4c(-c5cc(Cl)cc6c5N(C5CCNC5)CCC6)ncnn4c3)C(=O)C21` (single isomer, unassigned) [Example 66, 3-((4-(6-chloro-1-(pyrrolidin-3-yl)-1,2,3,4-tetrahydroquinolin-8-yl)pyrrolo[2,1-f][1,2,4]triazin-6-yl)methyl)-6,6-dimethyl-3-azabicyclo[3.1.0]hexane-2,4-dione hydrochloride], the IC50 is below 0.5 µM.

`CC1(C)C2C(=O)N(Cc3cc4c(-c5cc(Cl)cc6c5N(C5CCNC5)CCC6)ncnn4c3)C(=O)C21` (single isomer, unassigned) [Example 67, 3-((4-(6-chloro-1-(pyrrolidin-3-yl)-1,2,3,4-tetrahydroquinolin-8-yl)pyrrolo[2,1-f][1,2,4]triazin-6-yl)methyl)-6,6-dimethyl-3-azabicyclo[3.1.0]hexane-2,4-dione hydrochloride] had an IC50 below 0.5 µM.

Regarding `Cc1cc(Cl)cc(-c2ncnn3cc(Cn4c(=O)ccn(C)c4=O)cc23)c1C[C@@H]1CNCCO1` (single isomer, unassigned) [Example 82, hydrochloride], the IC50 is below 0.5 µM.

Regarding `Cc1cc(Cl)cc(-c2ncnn3cc(Cn4c(=O)ccn(CC(F)(F)F)c4=O)cc23)c1C[C@@H]1CNCCO1` (single isomer, unassigned) [Example 83, hydrochloride], the IC50 was below 0.5 µM.

In turn, `Cc1cc(Cl)cc(-c2ncnn3cc(Cn4c(=O)ccn(C(C)C)c4=O)cc23)c1C[C@@H]1CNCCO1` (single isomer, unassigned) [Example 89, hydrochloride] returned an IC50 below 0.5 µM.

`CCn1ccc(=O)n(Cc2cc3c(-c4cc(Cl)cc(C)c4C[C@@H]4CNCCO4)ncnn3c2)c1=O` (single isomer, unassigned) [Example 104, hydrochloride] showed an IC50 below 0.5 µM.

Molecule `[2H]C([2H])([2H])n1ccc(=O)n(Cc2cc3c(-c4cc(Cl)cc(C)c4C[C@@H]4CNCCO4)ncnn3c2)c1=O` (single isomer, unassigned) [Example 105, hydrochloride] registered an IC50 below 0.5 µM.

As for `Cc1cc(Cl)cc(-c2ncnn3cc(Cn4c(=O)ccn(C5CC5)c4=O)cc23)c1CC1CNC[C@H](C)O1` (single isomer, unassigned) [Example 106, hydrochloride], the IC50 was below 0.5 µM.

`Cc1cc(Cl)cc(-c2ncnn3cc(Cn4c(=O)ccn(C5CC5)c4=O)cc23)c1C[C@@H]1CNCCO1` (single isomer, unassigned) [Example 107, hydrochloride] yielded an IC50 below 0.5 µM.

Regarding `Cc1cc(Cl)cc(-c2ncnn3cc(Cn4c(=O)c(F)cn(C)c4=O)cc23)c1CC1CNC[C@H](C)O1` (single isomer, unassigned) [Example 108, hydrochloride], the IC50 was below 0.5 µM.

With `Cc1cc(Cl)cc(-c2ncnn3cc(Cn4c(=O)ccn(C)c4=O)cc23)c1CC1CN[C@@H](C)CO1` (single isomer, unassigned) [Example 110, hydrochloride], the IC50 is below 0.5 µM.

`Cc1cc(Cl)cc(-c2ncnn3cc(Cn4c(=O)ccn(C(C)C)c4=O)cc23)c1CC1CN[C@@H](C)CO1` (single isomer, unassigned) [Example 113, hydrochloride] came in with a half-inhibitory concentration (IC50) below 0.5 µM.

Consider `CCn1ccc(=O)n(Cc2cc3c(-c4cc(Cl)cc(C)c4CC4CNC[C@H](C)O4)ncnn3c2)c1=O` (single isomer, unassigned) [Example 114, hydrochloride], for which the IC50 was below 0.5 µM.

`Cc1cc(Cl)cc(-c2ncnn3cc(Cn4c(=O)c(C)cn(C)c4=O)cc23)c1CC1CNC[C@H](C)O1` (single isomer, unassigned) [Example 115, hydrochloride] yielded an IC50 below 0.5 µM.

For `Cc1cc(Cl)cc(-c2ncnn3cc(CN4C(=O)CN(C)CC4=O)cc23)c1CC1CNC[C@H](C)O1` (single isomer, unassigned) [Example 117, hydrochloride], the IC50 was below 0.5 µM.

The molecule `Cc1cc(Cl)cc(-c2ncnn3cc(Cn4c(=O)cc[nH]c4=O)cc23)c1C[C@@H]1CNCCO1` (single isomer, unassigned) [Example 124, hydrochloride] came in with an IC50 below 0.5 µM.

Turning to `C[C@H]1CNCC(Cc2c(Cl)cc(Cl)cc2-c2ncnn3cc(Cn4c(=O)ccn(C)c4=O)cc23)O1` (single isomer, unassigned) [Example 126, hydrochloride], the IC50 was below 0.5 µM.

As to `Cc1cc(Cl)cc(-c2ncnn3cc(CN4C(=O)C5C(C4=O)C5(C)C)cc23)c1O[C@H]1CCCNC1` (stereo partly drawn) [Example 1, 3-((4-(5-chloro-3-methyl-2-(((S)-piperidin-3-yl)oxy)phenyl)pyrrolo[2,1-f][1,2,4]triazin-6-yl)methyl)-6,6-dimethyl-3-azabicyclo[3.1.0]hexane-2,4-dione hydrochloride], the IC50 is below 0.5 µM.

With `Cc1cc(Cl)cc(-c2ncnn3cc(CN4C(=O)C5C(C4=O)C5(C)C)cc23)c1C[C@@H]1CNCCO1` (stereo partly drawn) [Example 2, 3-((4-(5-chloro-3-methyl-2-(((R)-morpholin-2-yl)methyl)phenyl)pyrrolo[2,1-f][1,2,4]triazin-6-yl)methyl)-6,6-dimethyl-3-azabicyclo[3.1.0]hexane-2,4-dione hydrochloride], the IC50 was below 0.5 µM.

In the case of `Cc1cc(Cl)cc(-c2ncnn3cc(CN4C(=O)C5C(C4=O)C5(C)C)cc23)c1CN1CCNC[C@@H]1C` (stereo partly drawn) [Example 6, 3-((4-(5-chloro-3-methyl-2-(((S)-2-methylpiperazin-1-yl)methyl)phenyl)pyrrolo[2,1-f][1,2,4]triazin-6-yl)methyl)-6,6-dimethyl-3-azabicyclo[3.1.0]hexane-2,4-dione hydrochloride], the IC50 was below 0.5 µM.

`CC1(C)C2C(=O)N(Cc3cc4c(-c5cc(Cl)cc6ccn(CC7(F)CCNCC7)c56)ncnn4c3)C(=O)C21` (stereo not shown) [Example 10, 3-((4-(5-chloro-1-((4-fluoropiperidin-4-yl)methyl)-1H-indol-7-yl)pyrrolo[2,1-f][1,2,4]triazin-6-yl)methyl)-6,6-dimethyl-3-azabicyclo[3.1.0]hexane-2,4-dione hydrochloride] had an IC50 below 0.5 µM.

Take `Cc1cc(Cl)cc(-c2ncnn3cc(CN4C(=O)C5C(C4=O)C5(C)C)cc23)c1CN1[C@@H](C)CNC[C@@H]1C` (stereo partly drawn) [Example 11, 3-((4-(5-chloro-2-(((2S,6S)-2,6-dimethylpiperazin-1-yl)methyl)-3-methylphenyl)pyrrolo[2,1-f][1,2,4]triazin-6-yl)methyl)-6,6-dimethyl-3-azabicyclo[3.1.0]hexane-2,4-dione dihydrochloride]: the IC50 is below 0.5 µM.

Regarding `Cc1cc(Cl)cc(-c2ncnn3cc(CN4C(=O)C5C(C4=O)C5(C)C)c(C)c23)c1C[C@@H]1CNCCO1` (stereo partly drawn) [Example 13, 3-((4-(5-chloro-3-methyl-2-(((R)-morpholin-2-yl)methyl)phenyl)-5-methylpyrrolo[2,1-f][1,2,4]triazin-6-yl)methyl)-6,6-dimethyl-3-azabicyclo[3.1.0]hexane-2,4-dione hydrochloride], the IC50 is 0.5 to 1 µM.

In turn, `Cc1cc(Cl)cc(-c2ncnn3cc(CN4C(=O)C5C(C4=O)C5(C)C)cc23)c1O[C@@H]1CNC[C@@H]1F` (stereo partly drawn) [Example 14, 3-((4-(5-chloro-2-(((3R,4S)-4-fluoropyrrolidin-3-yl)oxy)-3-methylphenyl)pyrrolo[2,1-f][1,2,4]triazin-6-yl)methyl)-6,6-dimethyl-3-azabicyclo[3.1.0]hexane-2,4-dione hydrochloride] showed an IC50 below 0.5 µM.

For `CC1(C)C2C(=O)N(Cc3cc4c(-c5cc(C(F)(F)F)cc6ccn(CC7(F)CCNCC7)c56)ncnn4c3)C(=O)C21` (stereo not shown) [Example 22, 3-((4-(1-((4-fluoropiperidin-4-yl)methyl)-5-(trifluoromethyl)-1H-indol-7-yl)pyrrolo[2,1-f][1,2,4]triazin-6-yl)methyl)-6,6-dimethyl-3-azabicyclo[3.1.0]hexane-2,4-dione hydrochloride], the IC50 was below 0.5 µM.

The molecule `CC1(C)C2C(=O)N(Cc3cc4c(-c5cc(Cl)cc6ccn(CC7CNCCO7)c56)ncnn4c3)C(=O)C21` (stereo not shown) [Example 24, 3-((4-(5-chloro-1-(morpholin-2-ylmethyl)-1H-indol-7-yl)pyrrolo[2,1-f][1,2,4]triazin-6-yl)methyl)-6,6-dimethyl-3-azabicyclo[3.1.0]hexane-2,4-dione dihydrochloride] yielded an IC50 below 0.5 µM.

`CC1(C)C2C(=O)N(Cc3cc4c(-c5cc(Cl)cc6ccn(CC7(C#N)CCNCC7)c56)ncnn4c3)C(=O)C21` (stereo not shown) [Example 25, 4-((5-chloro-7-(6-((6,6-dimethyl-2,4-dioxo-3-azabicyclo[3.1.0]hexan-3-yl)methyl)pyrrolo[2,1-f][1,2,4]triazin-4-yl)-1H-indol-1-yl)methyl)piperidine-4-carbonitrile 2,2,2-trifluoroacetate]: the IC50 was below 0.5 µM.

Molecule `Cc1cc(Cl)cc(-c2ncnn3cc(CN4C(=O)C5C(C4=O)C5(C)C)cc23)c1CC1CNC[C@H](C)O1` (stereo partly drawn) [Example 27, 3-((4-(5-chloro-3-methyl-2-(((6S)-6-methylmorpholin-2-yl)methyl)phenyl)pyrrolo[2,1-f][1,2,4]triazin-6-yl)methyl)-6,6-dimethyl-3-azabicyclo[3.1.0]hexane-2,4-dione dihydrochloride] returned an IC50 below 0.5 µM.
